System: PxXyl43A
Assay: p-nitrophenol release, absorbance at […] nm
Format: biochemical, Paenibacillus xylaniclasticus
Details: pH 7.0, 50 mM potassium phosphate, 54 °C, 1.5 min, 1.8 to 9.0 mM pNPX

With `O=[N+]([O-])c1ccc(O[C@@H]2OC[C@@H](O)[C@H](O)[C@H]2O)cc1` [pNPX] the Km was 1200 µM.

— paper PMC9534826 (Journal of Applied Glycoscience, 2022)
